Patent US20180110824A1, “Macrocyclic Modulators of the Ghrelin Receptor” (Ocera Therapeutics, Inc., priority 2016, published 2018)
Where two headings read alike, the source gives them in different places.

Columns and labels:
[1] = test system: morphine-delayed gastric emptying and gastrointestinal transit in rats; experiment: Opioid (morphine)-delayed gastric emptying and gastrointestinal transit in rats; format: in vivo, rat; conditions: 3 mg/kg, s.c., rats, FIG. 16A
Text: Opioid analgesics, such as morphine, are well known to delay gastrointestinal transit which is an important side-effect for this class of drugs. The clinical term for this syndrome is opioid bowel dysfunction (OBD). Importantly, patients recovering from abdominal surgery experience post-operative ileus that is further exacerbated by concomitant opioid therapy for post-surgical pain.
• 1. Rats (male, Sprague-Dawley, 250-300 g) are implanted with jugular vein catheters to accommodate dosing of test articles. • 2. Overnight-fasted rats are administered morphine (3 mg/kg s.c.). • 3. […] Radioactivity (^99mTc) in each tissue isolate is measured as a means of measuring the transit of the meal.

[2] = test system: gastric emptying in fasted rats; experiment: Gastric emptying in fasted rats (phenol red methylcellulose meal); format: in vivo, rat
Procedure: To examine the effects of compounds of the invention in a model for gastroparesis, compounds were evaluated for possible effects on gastric emptying in fasted rats.
GHRP-6 and test samples were dissolved in vehicle of 9% HPBCD/0.9% NaCl. Immediately following oral administration of methylcellulose (2%) containing phenol red (0.05%) (2 mL/rat), test substances or vehicle (9% HPBCD/0.9% NaCl) were each administered intravenously (i.v.) at a dosing volume of 5 mL/kg.
Male Wistar rats were provided by LASCO (A Charles River Licensee Corporation, Taiwan). Space allocation for 6 animals was 45×23×15 cm. Animals were housed in APEC® cages and maintained in a controlled temperature (22° C.-24° C.) and humidity (60% -80%) environment with 12 h light, 12 h dark cycles for at least one week in the laboratory prior to being used. Free access to standard lab chow for rats (Lab Diet, Rodent Diet, PMI Nutrition International, USA) and tap water was granted. All aspects of this work including housing, experimentation and disposal of animals were performed in general accordance with the Guide for the Care and Use of Laboratory Animals (National Academy Press, Washington, D.C., 1996).
Test substances were each administered intravenously to a group of 5 O/N-fasted Wistar derived male rats weighing 200±20 g immediately after methylcellulose (2%) containing phenol red (0.05%) was administered orally at 2 mL/animal. The animals were then sacrificed 15 minutes later. The stomach was immediately removed, homogenized in 0.1 N NaOH (5 mL) and centrifuged. Following protein precipitation by 20% trichloroacetic acid (0.5 mL)and re-alkalization of the supernatant with 0.1 N NaOH, total phenol red remaining in the stomach was determined by a colorimetric method at 560 nm. A 30 percent or more (≥30%) increase in gastric emptying, detected as the decrease in phenol red concentration in the stomach relative to the vehicle control group, is considered significant.
• 1. Overnight-fasted rats (male Wistar, ˜200 g, N=5/group) were given a meal of methylcellulose (2%) by intragastric gavage. The meal was labeled with phenol red (0.05%). • 2. […] Animals were sacrificed 15 minutes later; the stomach was immediately removed and homogenized in 0.1 N NaOH and centrifuged. • 4. Total phenol red remaining in the stomach was quantified by a colorimetric method at 560 nm. • 5. A >30% increase in gastric emptying, detected based on the phenol red concentration in comparison to the control group, is considered significant.

[3] = target: T1, human growth hormone secretagogue receptor (hGHS-R1a) (Homo sapiens, UniProt Q92847); experiment: Competitive radioligand binding assay (ghrelin receptor), [125I]-ghrelin displacement on GHS-R/HEK 293 membranes
T1 construct: purchased PerkinElmer BioSignal #RBHGHSM; host or cells: HEK-293, stably transfected

[4] = target: T2, human ghrelin receptor (hGHS-R1a) (Homo sapiens, UniProt Q92847); experiment: Aequorin functional assay (ghrelin receptor), CHO-K1 cells co-expressing Gα16 and aequorin; format: cell-based; conditions: Table 4, functional (agonist) activity, TFA salts unless otherwise noted
T2 construct: host or cells: CHO-K1 co-expressing Gα16 and mitochondrially targeted aequorin
Procedure: This cell line is typically constructed by transfection of the human ghrelin receptor into CHO-K1 cells co-expressing Gα16 and the mitochondrially targeted Aequorin (Ref #ES-WT-A5). • 1. […] Assay buffer: DMEM (Dulbecco's Modified Eagles Medium) containing 0.1% BSA (bovine serum albumin; pH 7.0). • 3. Coelenterazine (Molecular Probes, Leiden, The Netherlands). • Final test concentrations (N=8) for compounds of the invention: 10, 1, 0.3, 0.1, 0.03, 0.01, 0.003, 0.001 μM.
Stock solutions of compounds (10 mM in 100% DMSO) were provided frozen on dry ice and stored at −20° C. prior to use. […] Assay plates were then prepared by appropriate dilution in DMEM medium containing 0.1% BSA. Under these conditions, the maximal final DMSO concentration in the assay was <0.6%.
AequoScreen™ cells were collected from culture plates with Ca^2+ and Mg^2+-free phosphate buffered saline (PBS) supplemented with 5 mM EDTA, pelleted for 2 min at 1000×g re-suspended in DMEM—Ham's F12 containing 0.1% BSA at a density of 5×10^6 cells/mL, and incubated O/N at rt in the presence of 5 μM coelenterazine. After loading, cells were diluted with assay buffer to a concentration of 5×10^5 cells/mL.
For agonist testing, 50 μL of the cell suspension was mixed with 50 μL of the appropriate concentration of test compound or ghrelin (reference agonist) in 96-well plates (duplicate samples). Ghrelin (reference agonist) was tested at several concentrations concurrently with the test compounds in order to validate the experiment. The emission of light resulting from receptor activation in response to ghrelin or test compounds was recorded using the Hamamatsu FDSS 6000 reader (Hamamatsu Photonics K.K., Japan).
Results were expressed as Relative Light Units (RLU). […] EC50, Hill slope and % Emax values are reported.
• 1. Assay performed on CHO-K1 cells expressing the transfected, cloned human ghrelin receptor (hGHS-R1a) and Gα16. • 2. Suspended cells incubated O/N with coelenterazine. • 3. Stimulation of hGHS-R1a activates Gα16, causing […] Ca2+ release which ultimately leads to the oxidation of coelenterazine and the emission of a quantitative luminescent signal. • 4. Ghrelin was used as the positive control. • 5.

[5] = Pharmacokinetic analysis in rats (i.v., s.c., p.o.); format: in vivo; conditions: male, Sprague-Dawley, plasma, iv, 2 mg/kg, rat
Procedure: • 1. Intravenous (i.v.): 2 mg/kg • 2. Subcutaneous (s.c): 2 mg/kg • 3. Oral (p.o.): 8 mg/kg
Whole blood samples were chilled and immediately processed by centrifugation to obtain plasma.
Plasma samples were stored frozen (−70° C.) until analysis.

motilin receptor = motilin receptor (Homo sapiens, UniProt O43193); experiment: Selectivity for the ghrelin receptor versus the motilin receptor; format: binding
Text: The level of agonist activity and selectivity for representative compounds of the invention are shown below in Table 4.

[6] = Table 4, TFA salts unless otherwise noted, read-out: Ki
[7] = Table 3B, binding activity at the human ghrelin receptor, read-out: Ki

Sequence of motilin receptor (O43193 whole entry, species assumed): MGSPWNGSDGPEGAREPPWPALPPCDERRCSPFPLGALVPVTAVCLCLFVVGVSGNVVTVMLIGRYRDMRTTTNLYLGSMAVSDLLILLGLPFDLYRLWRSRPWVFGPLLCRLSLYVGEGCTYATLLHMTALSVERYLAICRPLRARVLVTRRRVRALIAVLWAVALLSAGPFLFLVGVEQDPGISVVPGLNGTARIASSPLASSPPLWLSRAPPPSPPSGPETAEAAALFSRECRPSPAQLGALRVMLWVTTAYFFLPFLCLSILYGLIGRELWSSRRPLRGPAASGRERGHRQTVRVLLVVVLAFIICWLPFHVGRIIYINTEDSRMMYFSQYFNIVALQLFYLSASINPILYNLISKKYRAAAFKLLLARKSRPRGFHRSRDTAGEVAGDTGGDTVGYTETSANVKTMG
T2 sequence (Q92847 whole entry): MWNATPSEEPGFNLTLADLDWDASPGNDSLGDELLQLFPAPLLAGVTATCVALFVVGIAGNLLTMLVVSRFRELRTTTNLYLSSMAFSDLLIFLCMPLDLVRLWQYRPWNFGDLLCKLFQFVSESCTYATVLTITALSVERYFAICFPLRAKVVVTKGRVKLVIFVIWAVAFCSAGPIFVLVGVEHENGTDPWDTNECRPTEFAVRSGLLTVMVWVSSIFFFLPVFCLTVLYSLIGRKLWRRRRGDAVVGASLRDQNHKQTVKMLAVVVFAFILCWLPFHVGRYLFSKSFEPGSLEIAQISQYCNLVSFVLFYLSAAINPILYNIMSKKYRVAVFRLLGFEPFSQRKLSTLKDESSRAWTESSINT
T1 sequence (Q92847 whole entry): as above

| SMILES | Ki [3, 6] [nM] | EC50 ([4]; read-out: EC50) [nM] | Selectivity (motilin receptor) | Ki [3, 7] [nM] | also measured |
| --- | --- | --- | --- | --- | --- |
| CN1CC[C@]23c4c5ccc(O)c4O[C@H]2[C@@H](O)C=C[C@H]3[C@H]1C5 [Morphine, morphine, reference compound] |  |  |  |  | gastric emptying and intestinal transit [1]: significantly delayed gastric emptying and intestinal transit |
| CCC(C)[C@@H]1NCCOc2ccccc2CCCNC(=O)[C@@H](Cc2ccc(Cl)cc2)NC(=O)[C@@H](C)N(C)C1=O (stereo partly shown) [compound 25] |  |  |  |  | gastric emptying ([2]; 30 μg/kg, fasted rats): demonstrated gastric emptying; increase in gastric emptying relative to the vehicle control group ([2]; 100 μg/kg i.v., fasted rats): 39%; Ki ([3]; Ki (nM), Binding activity at the human ghrelin receptor, [125I]-ghrelin displacement): 0.1 to 10 nM; Ki ([3]; Ki (nM), Table 4, TFA salts unless otherwise noted): 0.1 to 10 nM; EC50 ([4]; EC50 (nM)): 1 to 100 nM; clearance [5]: 67 mL/min/kg; half-life ([5]; read-out: Elimination (t1/2, min)): 31 min |
| CCC(C)[C@@H]1NCCOc2ccccc2CCCNC(=O)[C@@H](Cc2ccc(OC)cc2)NC(=O)[C@@H](C)N(C)C1=O (stereo partly shown) [compound 27] | 0.1 to 10 | 1 to 100 | >7100/1 |  | Ki ([3]; Binding activity at the human ghrelin receptor, [125I]-ghrelin displacement, read-out: Ki): 0.1 to 10 nM |
| C[C@@H]1C(=O)N[C@H](Cc2ccc(Cl)cc2Cl)C(=O)NCCCc2ccccc2OCCN[C@@H](C2CC2)C(=O)N1C [compound 314] | 0.1 to 10 | 1 to 100 | >5500/1 | 0.1 to 10 |  |
| C[C@H]1NC(=O)C2(CCCC2)NCCOc2ccccc2/C=C/CNC(=O)[C@H](Cc2cccc(Cl)c2)NC1=O [compound 351] | 10 to 100 | 1 to 100 | 450/1 |  | Ki ([3]; Table 3C, read-out: Ki): 10 to 100 nM |
| C[C@@H]1C(=O)N[C@H](Cc2ccc(F)cc2)C(=O)NCCCc2ccc(F)cc2OCCN[C@@H](C2CC2)C(=O)N1C [compound 372] | 0.1 to 10 | 1 to 100 | 2500/1 | 0.1 to 10 |  |
| C[C@@H]1C(=O)N[C@H](Cc2ccc(F)cc2)C(=O)NCCCc2cc(NS(C)(=O)=O)ccc2OCCN[C@@H](C2CC2)C(=O)N1C [compound 374] | 10 to 100 | 1 to 100 | 250/1 | 10 to 100 |  |
| CC[C@H](C)[C@@H]1NCCOc2ccc(F)cc2CCCNC(=O)[C@H](Cc2cccc(Cl)c2)NC(=O)C2(CCCC2)NC1=O [compound 382] | 10 to 100 | 100 to 1000 | 74/1 | 10 to 100 |  |
| CCN(CC)CCNC(=O)c1cc(Cl)c(N)cc1OC [metoclopramide, Metoclopramide, reference compound] |  |  |  |  | increase in gastric emptying relative to the vehicle control group ([2]; 10 mg/kg i.v., fasted rats): 41%; gastric emptying of a meal in naïve rat ([2]; i.v., FIGS. 14A and 14B): demonstrated significant gastric emptying |
